Assay results from US20120022045A1, “BRIDGED COMPOUNDS AS HIV INTEGRASE INHIBITORS” (priority 2009, published 2012).
Read-outs that look alike come from different tables or passages of the source.

Key:
Format in all cases: cell-based
HIV-1 = assay: Inhibition of acute HIV-1 infection of T-lymphoid cells (spread assay); conditions: 10% FBS, read-out: IC95 (nM) in the presence of 10% FBS
Procedure: Assays for the inhibition of acute HIV-1 infection of T-lymphoid cells were conducted in accordance with Vacca, J. P. et al., Proc. Natl. Acad. Sci. USA 1994, 91: 4096.

HIV-1 wild type IIIB = assay: Single cycle infectivity assay in HeLa P4-2 cells, wild type virus
Procedure: (§1) An assay for measuring the inhibition of acute HIV-1 infection with HeLa P4-2 cells in a single cycle infectivity assay was conducted using methods described in Joyce et al., J. Biol. Chem. 2002, 277: 45811, Hazuda et al., Science 2000, 287: 646, and Kimpton et al, J. Virol. 1992, 66: 2232. Proviral plasmids encoding viruses containing specific mutations in the integrase gene (N155H, Q148R, Y143R, E92Q, or G140S/Q148H) were generated by site-directed mutagenesis, and viruses were produced by transfecting 293T cells with the appropriate proviral plasmids.

[1] = tested on: HIV-1 integrase mutant virus N155H; assay: Single cycle infectivity assay in HeLa P4-2 cells, integrase mutant N155H virus; conditions: fold shift in IC50 versus wild type IIIB
Procedure: as §1

[2] = tested on: HIV-1 integrase mutant virus Q148R; assay: Single cycle infectivity assay in HeLa P4-2 cells, integrase mutant Q148R virus; conditions: fold shift in IC50 versus wild type IIIB
Procedure: as §1

[3] = tested on: HIV-1 integrase mutant virus Y143R; assay: Single cycle infectivity assay in HeLa P4-2 cells, integrase mutant Y143R virus; conditions: fold shift in IC50 versus wild type IIIB
Procedure: as §1

[4] = tested on: HIV-1 integrase mutant virus G140S/Q148H; assay: Single cycle infectivity assay in HeLa P4-2 cells, integrase mutant G140S/Q148H virus; conditions: fold shift in IC50 versus wild type IIIB
Procedure: as §1

[5] = Human immunodeficiency virus 1, T-lymphoid
[6] = Human immunodeficiency virus 1, IIIB, HeLaP4-2, wild type IIIB

Structure (SMILES) | IC95 (HIV-1; [5]) [nM] | IC50 (HIV-1 wild type IIIB; [6]) [nM] | N155H (shift) [1] [fold] | Q148R (shift) [2] [fold] | Y143R (shift) [3] [fold] | G140S/Q148H (shift) [4] [fold] | IC95 (HIV-1) [nM] | IC50 (HIV-1 wild type IIIB; wild type IIIB) [nM]
COC12CCC(N(C)C(=O)C(=O)N(C)C)(CC1)c1nc(C(=O)NCc3ccc(F)cc3)c(O)c(=O)n1C2 [Example 15, N-(4-{[(4-Fluorobenzyl)amino]carbonyl}-5-hydroxy-9-methoxy-6-oxo-3,7-diazatricyclo[7.2.2.0^2,7]trideca-2,4-dien-1-yl)-N,N′,N′-trimethylethanediamide] | 9.5 | 23 | 2 | 1 | 1 | 9 |  | 
Cc1nnc(C(=O)N(C)C23CCC(Cn4c2nc(C(=O)NCc2ccc(F)cc2)c(O)c4=O)C3)o1 (stereo not drawn) [Example 7, N-(4-Fluorobenzyl)-3-hydroxy-10-{methyl[(5-methyl-1,3,4-oxadiazol-2-yl)carbonyl]amino}-4-oxo-4,6,7,8,9,10-hexahydro-7,10-methanopyrimido[1,2-a]azepine-2-carboxamide] | 9.6 | 80 | 3 | 4 | 2 | 44 |  | 
CCC1C2CCC(N(C)C(=O)C(=O)N(C)C)(CO2)c2nc(C(=O)NCc3ccc(F)cc3)c(O)c(=O)n21 (single isomer, unassigned) [Example 25C, N-(8-ethyl-4-{[(4-fluorobenzyl)amino]carbonyl}-5-hydroxy-6-oxo-10-oxa-3,7-diazatricyclo[7.2.2.0^2,7]trideca-2,4-dien-1-yl)-N,N′,N′-trimethylethanediamide] |  |  | 6 | 4 | 3 | 88 | 10.8 | 6
CC1C2CCC(N(C)C(=O)C(=O)N(C)C)(CO2)c2nc(C(=O)NCc3ccc(F)cc3)c(O)c(=O)n21 (single isomer, unassigned) [Example 27C, N-(4-{[(4-fluorobenzyl)amino]carbonyl}-5-hydroxy-8-methyl-6-oxo-10-oxa-3,7-diazatricyclo[7.2.2.0^2,7]trideca-2,4-dien-1-yl)-N,N′,N′-trimethylethanediamide] |  |  | 11 | 12 | 3 | >111 | 7.7 | 15
CCC1C2CCC(NC(=O)C(=O)N(C)C)(CO2)c2nc(C(=O)NCc3ccc(F)cc3)c(O)c(=O)n21 (single isomer, unassigned) [Example 26D, N′-(8-ethyl-4-{[(4-fluorobenzyl)amino]carbonyl}-5-hydroxy-6-oxo-10-oxa-3,7-diazatricyclo[7.2.2.0^2,7]trideca-2,4-dien-1-yl)-N-dimethylethanediamide] |  |  | 1 | 1 | 2 | 1 | 5.1 | 16
CCC12CCC(NC(=O)C(=O)N(C)C)(CO1)c1nc(C(=O)NCc3ccc(F)cc3)c(O)c(=O)n1C2 (single isomer, unassigned) [Example 22A, N′-(9-ethyl-4-{[(4-fluorolbenzyl)amino]carbonyl}-5-hydroxy-6-oxo-10-oxa-3,7-diazatricyclo[7.2.2.0^2,7]trideca-2,4-dien-1-yl)-N,N-dimethylethanediamide] | 12.7 |  | 23 | 24 | 5 | 198 |  | 7
CCC12CCC(NC(=O)C(=O)N(C)C)(CO1)c1nc(C(=O)NCc3ccc(F)cc3)c(O)c(=O)n1C2 (single isomer, unassigned) [Example 22B, N′-(9-ethyl-4-{[(4-fluorolbenzyl)amino]carbonyl}-5-hydroxy-6-oxo-10-oxa-3,7-diazatricyclo[7.2.2.0^2,7]trideca-2,4-dien-1-yl)-N,N-dimethylethanediamide] |  |  | 3 | 3 | 1 | 10 | 12.6 | 19
CCC1C2CCC(N(C)C(=O)C(=O)N(C)C)(CO2)c2nc(C(=O)NCc3ccc(F)cc3)c(O)c(=O)n21 (single isomer, unassigned) [Example 25D, N-(8-ethyl-4-{[(4-fluorobenzyl)amino]carbonyl}-5-hydroxy-6-oxo-10-oxa-3,7-diazatricyclo[7.2.2.0^2,7]trideca-2,4-dien-1-yl)-N,N′,N′-trimethylethanediamide] |  |  | 98 | 38 | 3 | >111 | 7.2 | 15
CN(C)C(=O)C(=O)N(C)C12CCC(CC1)Cn1c2nc(C(=O)NCc2ccc(F)cc2)c(O)c1=O (single isomer, unassigned) [Example 24A] | 11.7 | 15 | 4 | 5 | 1 | >111 |  | 
CN(C)C(=O)C(=O)N(C)C12CCC(Cn3c1nc(C(=O)NCc1ccc(F)cc1)c(O)c3=O)OC2 (single isomer, unassigned) [Example 23B] |  |  | 136 | 253 | 7 | 229 | 23.6 | 5
CCC12CCC(N(C)C(=O)C(=O)N(C)C)(CO1)c1nc(C(=O)NCc3ccc(F)cc3)c(O)c(=O)n1C2 (single isomer, unassigned) [Example 20A, N-(9-ethyl-4-{[(4-fluorolbenzyl)amino]carbonyl}-5-hydroxy-6-oxo-10-oxa-3,7-diazatricyclo[7.2.2.0^2,7]trideca-2,4-dien-1-yl)-N,N′,N′-trimethylethanediamide] | 11 |  | 3 | 2 | 1 | 21 |  | 8
CCC1C2CCC(N(C)C(=O)C(=O)N(C)C)(CO2)c2nc(C(=O)NCc3ccc(F)cc3)c(O)c(=O)n21 (single isomer, unassigned) [Example 25A, N-(8-ethyl-4-{[(4-fluorobenzyl)amino]carbonyl}-5-hydroxy-6-oxo-10-oxa-3,7-diazatricyclo[7.2.2.0^2,7]trideca-2,4-dien-1-yl)-N,N′,N′-trimethylethanediamide] | 6.3 |  | 1 | 1 | 7 | 1 |  | 14
CCC1C2CCC(NC(=O)C(=O)N(C)C)(CO2)c2nc(C(=O)NCc3ccc(F)cc3)c(O)c(=O)n21 (single isomer, unassigned) [Example 26B, N′-(8-ethyl-4-{[(4-fluorobenzyl)amino]carbonyl}-5-hydroxy-6-oxo-10-oxa-3,7-diazatricyclo[7.2.2.0^2,7]trideca-2,4-dien-1-yl)-N-dimethylethanediamide] |  |  | 1 | 1 | 1 | 1 | 22.6 | 36
CN(C)C(=O)C(=O)N(C)C12CCC(O)(CC1)Cn1c2nc(C(=O)NCc2ccc(F)cc2)c(O)c1=O [Example 17, N-(4-{[(4-Fluorobenzyl)amino]carbonyl}-5,9-dihydroxy-6-oxo-3,7-diazatricyclo[7.2.2.0^2,7]trideca-2,4-dien-1-yl)-N,N′,N′-trimethylethanediamide] | 20.5 | 46 | 3 | 3 | 1 | 38 |  | 
CC1C2CCC(NC(=O)C(=O)N(C)C)(CO2)c2nc(C(=O)NCc3ccc(F)cc3)c(O)c(=O)n21 (single isomer, unassigned) [Example 29C, N′-(4-{[(4-Fluorobenzyl)amino]carbonyl}-5-hydroxy-8-methyl-6-oxo-10-oxa-3,7-diazatricyclo[7.2.2.0^2,7]trideca-2,4-dien-1-yl)-N-dimethylethanediamide] |  |  | 17 | 8 | 3 | 81 | 47.8 | 20
CC1C2CCC(N(C)C(=O)C(=O)N(C)C)(CO2)c2nc(C(=O)NCc3ccc(F)cc3)c(O)c(=O)n21 (single isomer, unassigned) [Example 27D, N-(4-{[(4-fluorobenzyl)amino]carbonyl}-5-hydroxy-8-methyl-6-oxo-10-oxa-3,7-diazatricyclo[7.2.2.0^2,7]trideca-2,4-dien-1-yl)-N,N′,N′-trimethylethanediamide] |  |  | 1 | 1 | 1 | 2 | 6.9 | 11
CN(C)C(=O)C(=O)N(C)C12CCC(Cn3c1nc(C(=O)NCc1ccc(F)cc1)c(O)c3=O)OC2 (single isomer, unassigned) [Example 23A] |  |  | 7 | 6 | 1 | 84 | 16.7 | 21
